Reference: patent publication US7425641B2, “Carboxylic acid amides, the preparation thereof and their use as pharmaceutical compositions” (Boehringer Ingelheim Pharma KG, priority 1999, dated 2008)
Structures can show the parent of a compound that is named as a salt.

Molecular target: T1, human factor Xa (Homo sapiens, UniProt P00742)
T1 construct: released from the colourless chromogenic substrate by human factor Xa; purchased Roche
Experiment: inhibition of factor Xa, enzyme-kinetic measurement with chromogenic substrate
Format: biochemical
Settings: substrate Chromozym X 200 μMol/l, factor Xa (Roche) 0.175 U/ml, pH 8.0, 37° C., photometric at 405 nm
Text: For example, the compounds • A=2-(5-carbamimidoyl-2-hydroxy-phenyl)-N-[3-methyl-4-(pyrrolidin-1-yl-carbonyl)-phenyl]-acetamide-hydrochloride, • B=2-(2-benzyloxy-5-carbamimidoyl-phenyl)-N-(2-ethoxycarbonyl-ethyl)-N-[3-methyl-4-(pyrrolidin-1-yl-carbonyl)-phenyl]-acetamide-hydrochloride, • C=2-(2-hydroxy-5-carbamimidoyl-phenyl)-N-(2-ethoxycarbonyl-ethyl)-N-[3-methyl-4-(pyrrolidin-1-yl-carbonyl)-phenyl]-acetamide-hydrochloride, • D=2-(2-hydroxy-5-carbamimidoyl-phenyl)-N-(2-carboxy-ethyl)-N-[3-methyl-4-(pyrrolidin-1-yl-carbonyl)-phenyl]-acetamide-hydrochloride • E=2-(5-carbamimidoyl-2-hydroxy-phenyl)-N-[3-methyl-4-(piperidin-1-yl-carbonyl)-phenyl]-acetamide-hydrochloride and • F=2-(5-carbamimidoyl-2-hydroxy-phenyl)-N-[3-methyl-4-(2-aminosulphonyl-phenyl)-phenyl]-acetamide-hydrochloride, were investigated for their effect on the inhibition of factor Xa as follows: • Method: Enzyme-kinetic measurement with chromogenic substrate. The quantity of anpnitroaniline (pNA) released from the colourless chromogenic substrate by human factor Xa is determined photometrically at 405 nm. It is proportional to the activity of the enzyme used. The inhibition of the enzyme activity by the test substance I (in relation to the solvent control) is determined at various concentrations of test substance and from this the IC50 is calculated, as the concentration which inhibits the factor Xa used by 50%. • Material: • Tris(hydroxymethyl)-aminomethane buffer (100 mmol) of and sodium chloride (150 mMol), pH 8.0 • Factor Xa (Roche), spec. activity: 10 U/0.5 ml, final concentration: 0.175 U/ml per reaction mixture • Substrate Chromozym X (Roche), final concentration: 200 μMol/l per reaction mixture • Test substance: final concentration 100, 30, 10, 3, 1, 0.3, 0.1, 0.03, 0.01, 0.003, 0.001 μMol/l
Procedure: 10 μl of a 23.5-times concentrated starting solution of the test substance or solvent (control), 175 μl of tris(hydroxymethyl)-aminomethane buffer and 25 μl of Factor Xa working solution of 1.65 U/ml are incubated for 10 minutes at 37° C. After the addition of 25 μl of Chromozym X working solution ([…]) the sample is measured in a photometer (SpectraMax 250) at 405 nm for 150 seconds at 37° C.
• 1. Determining the maximum increase (deltaOD/minutes) over 3 measuring points. • 2. Determining the % inhibition based on the solvent control. • 3. Plotting a dosage/activity curve (% inhibition vs substance concentration). • 4. Determining the IC50 by interpolating the X value (substance concentration) of the dosage/activity curve at Y=50% inhibition.

T1 sequence (P00742 235-488 limits assumed): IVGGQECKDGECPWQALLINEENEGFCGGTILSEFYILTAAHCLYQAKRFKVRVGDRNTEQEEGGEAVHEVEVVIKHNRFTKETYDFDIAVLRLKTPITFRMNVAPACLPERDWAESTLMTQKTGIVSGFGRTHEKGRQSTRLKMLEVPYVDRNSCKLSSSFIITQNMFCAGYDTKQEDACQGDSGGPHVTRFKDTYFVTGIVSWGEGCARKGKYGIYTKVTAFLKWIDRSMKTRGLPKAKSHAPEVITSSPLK
T1 sequence (P00742 41-179 partner limits assumed): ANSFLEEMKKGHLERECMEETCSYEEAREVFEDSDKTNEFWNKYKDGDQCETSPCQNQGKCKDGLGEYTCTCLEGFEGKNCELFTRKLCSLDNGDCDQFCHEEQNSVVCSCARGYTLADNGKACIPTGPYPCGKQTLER

First: Cc1cc(N(CCC(=O)O)C(=O)Cc2cc(C(=N)N)ccc2O)ccc1C(=O)N1CCCC1 [D, 2-(2-hydroxy-5-carbamimidoyl-phenyl)-N-(2-carboxy-ethyl)-N-[3-methyl-4-(pyrrolidin-1-yl-carbonyl)-phenyl]-acetamide-hydrochloride]
Second: CCOC(=O)CCN(C(=O)Cc1cc(C(=N)N)ccc1O)c1ccc(C(=O)N2CCCC2)c(C)c1 [C, 2-(2-hydroxy-5-carbamimidoyl-phenyl)-N-(2-ethoxycarbonyl-ethyl)-N-[3-methyl-4-(pyrrolidin-1-yl-carbonyl)-phenyl]-acetamide-hydrochloride]
The IC50 of the first is 7.1-fold higher: 0.85 µM for the first, 0.12 µM for the second. The second is the more potent here.

First: Cc1cc(NC(=O)Cc2cc(C(=N)N)ccc2O)ccc1C(=O)N1CCCC1 [A, 2-(5-carbamimidoyl-2-hydroxy-phenyl)-N-[3-methyl-4-(pyrrolidin-1-yl-carbonyl)-phenyl]-acetamide-hydrochloride]
Second: Cc1cc(NC(=O)Cc2cc(C(=N)N)ccc2O)ccc1C(=O)N1CCCCC1 [E, 2-(5-carbamimidoyl-2-hydroxy-phenyl)-N-[3-methyl-4-(piperidin-1-yl-carbonyl)-phenyl]-acetamide-hydrochloride]
The IC50 of the first is 2.8-fold lower: 0.03 µM for the first, 0.085 µM for the second.

Going from `CCOC(=O)CCN(C(=O)Cc1cc(C(=N)N)ccc1OCc1ccccc1)c1ccc(C(=O)N2CCCC2)c(C)c1` [B, 2-(2-benzyloxy-5-carbamimidoyl-phenyl)-N-(2-ethoxycarbonyl-ethyl)-N-[3-methyl-4-(pyrrolidin-1-yl-carbonyl)-phenyl]-acetamide-hydrochloride] to `Cc1cc(NC(=O)Cc2cc(C(=N)N)ccc2O)ccc1-c1ccccc1S(N)(=O)=O` [F, 2-(5-carbamimidoyl-2-hydroxy-phenyl)-N-[3-methyl-4-(2-aminosulphonyl-phenyl)-phenyl]-acetamide-hydrochloride], the IC50 falls from 0.68 µM to 0.26 µM (2.6-fold). The second is the more potent here.

System: not given
Experiment: not given
Settings: not given

For `Cl.N=C(N)c1cccc(C(=O)NCc2ccc(Oc3ccncc3)cc2)c1`, the melting point was 115 °C (dec.).

Compared with `Cl.N=C(N)c1cccc(C(=O)NCc2ccc(NS(=O)(=O)c3ccccc3)cc2)c1`, `Cl.N=C(N)c1cccc(C(=O)NCc2ccc(NC(=O)c3ccccc3)cc2)c1` is lower in melting point: 266 °C for the first, 190 to 215 °C for the second.
